Consider ten compounds from PubChem BioAssay (NCI).

Test systems include DU-145 prostate; HCC-2998 colon; HCT-15 colon; MDA-MB-435; OVCAR-5 ovarian; RPMI-8226 leukemia; SF-295 CNS; SF-539 CNS; SK-MEL-28 melanoma; U251 CNS.
What all share (assay): NCI-60 cell line screen, 48 h

Structures are written as SMILES.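 The compound was tested at five concentrations on cells cultured in 96-well plates, with a 48-hour exposure period. GI50 = concentration required for 50% inhibition of growth. TGI denotes the concentration required for complete inhibition of growth.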

`O[C@@H]1CCCN1Cc1cc2cc3c(cc2c2cc(OCc4ccccc4)ccc12)OCO3`: the GI50 in the test with DU-145 prostate was 5.24 µM; in the test on HCC-2998 colon it was 1.85 µM; in the test on HCT-15 colon, 3.47 µM; in the test on MDA-MB-435, 2 µM; in the test on OVCAR-5 ovarian, 5.64 µM; in the test with RPMI-8226 leukemia, 1.77 µM. Also, the GI50 with SF-295 CNS is 1.95 µM; with SF-539 CNS it was 3.19 µM; with SK-MEL-28 melanoma, 1.78 µM; with U251 CNS, 3.58 µM. The TGI in the test with DU-145 prostate turned out to be 21.8 µM; with HCC-2998 colon, 3.76 µM; with HCT-15 colon, 12.3 µM; with MDA-MB-435 it was 4.29 µM; in the test on OVCAR-5 ovarian, 21.2 µM; in the test on RPMI-8226 leukemia, 4.63 µM. Moreover, the TGI was 4.23 µM in the test on SF-295 CNS, 10.4 µM in the test with SF-539 CNS, 3.85 µM in the test on SK-MEL-28 melanoma and 14.8 µM with U251 CNS.

In the case of `CC(C)(C)c1cn2cccc(C(=O)N3CCN(CC(=O)Nc4ccc(Cl)cc4C(=O)c4ccccc4Cl)CC3)c2n1`, the GI50 in the test on DU-145 prostate was 11.7 µM; with HCC-2998 colon it was 10.3 µM; with HCT-15 colon it was 4.81 µM; in the test with MDA-MB-435, 6.39 µM; in the test on OVCAR-5 ovarian, 16.1 µM; in the test on RPMI-8226 leukemia it was 2.67 µM. In addition, the GI50 with SF-295 CNS was 4.05 µM; with SF-539 CNS, 10 µM; with SK-MEL-28 melanoma, 11 µM; in the test with U251 CNS, 7.68 µM. Moreover, the TGI in the test on DU-145 prostate is 27.5 µM; in the test on HCC-2998 colon it was 75.1 µM; in the test with HCT-15 colon it was 32 µM; in the test with MDA-MB-435, 21.6 µM; with OVCAR-5 ovarian it was 44.9 µM; with RPMI-8226 leukemia it was 7.26 µM. The TGI in the test with SF-295 CNS came out at 7.18 µM; in the test with SF-539 CNS, 22.3 µM; in the test on SK-MEL-28 melanoma it was 28.8 µM; with U251 CNS, 25.5 µM.

As for `Cc1cc(O)ccc1O`, the GI50 is 17.4 µM with DU-145 prostate; 73.6 µM with HCC-2998 colon; 16.6 µM in the test on HCT-15 colon; 17.8 µM in the test on MDA-MB-435; 16.6 µM in the test on OVCAR-5 ovarian; 9.26 µM with RPMI-8226 leukemia. In addition, the GI50 was 34.9 µM in the test on SF-295 CNS, 15.3 µM with SF-539 CNS, 30.6 µM in the test with SK-MEL-28 melanoma and 32.8 µM in the test on U251 CNS. In addition, the TGI with DU-145 prostate is 31.6 µM; with HCC-2998 colon, above 100 µM; with HCT-15 colon, 34.8 µM; in the test with MDA-MB-435 it was 36.6 µM; in the test with OVCAR-5 ovarian it was 32.1 µM; in the test on RPMI-8226 leukemia, 89.7 µM. The TGI with SF-295 CNS is above 100 µM; in the test on SF-539 CNS, 29.6 µM; with SK-MEL-28 melanoma it was above 100 µM; with U251 CNS it was above 100 µM.

On to `Oc1ccccc1Nc1nc2ccccc2c2occc12`, for which the GI50 in the test with DU-145 prostate is 9.66 µM; in the test on HCC-2998 colon it was 3.11 µM; with HCT-15 colon it was 12.8 µM; with MDA-MB-435, 9.25 µM; in the test with OVCAR-5 ovarian it was 12.6 µM; with RPMI-8226 leukemia, 9.11 µM. The GI50 in the test on SF-295 CNS was 3.71 µM; with SF-539 CNS, 10.4 µM; in the test with SK-MEL-28 melanoma, 15.1 µM; in the test with U251 CNS it was 12.3 µM. Moreover, the TGI with DU-145 prostate worked out at 21.4 µM; in the test on HCC-2998 colon, 10.3 µM; in the test with HCT-15 colon it was 31.7 µM; with MDA-MB-435, 21.2 µM; in the test on OVCAR-5 ovarian, 25.1 µM; in the test with RPMI-8226 leukemia, 57.8 µM. The TGI stood at 16.1 µM in the test on SF-295 CNS, 22.1 µM in the test on SF-539 CNS, 31.8 µM in the test with SK-MEL-28 melanoma and 24.7 µM in the test on U251 CNS.

Take `O=C1c2cccc3cccc(c23)C(=O)N1CCCCN1CCN(CCCCOc2ccc(-c3nc4ccc(N5CCOCC5)cc4[nH]3)cc2)CC1`: the GI50 in the test with DU-145 prostate was above 100 µM; in the test with HCC-2998 colon it was above 100 µM; in the test with HCT-15 colon, 56.2 µM; in the test on MDA-MB-435 it was above 100 µM; with OVCAR-5 ovarian, above 100 µM; in the test with RPMI-8226 leukemia, above 100 µM. For the same compound, the GI50 is above 100 µM with SF-295 CNS, above 100 µM in the test with SF-539 CNS, 66 µM in the test on SK-MEL-28 melanoma and 7.93 µM in the test on U251 CNS. In addition, the TGI with DU-145 prostate, in the test with HCC-2998 colon, in the test on HCT-15 colon, in the test on MDA-MB-435, with OVCAR-5 ovarian and in the test on RPMI-8226 leukemia was above 100 µM throughout. Also, the TGI in the test with SF-295 CNS, with SF-539 CNS, in the test with SK-MEL-28 melanoma and in the test with U251 CNS was above 100 µM throughout.

`O=C1CSC(=S)N1Cc1cccnc1`: the GI50 in the test on DU-145 prostate was 2.4 µM; in the test on HCC-2998 colon it was 19.8 µM; in the test on HCT-15 colon it was 2.87 µM; in the test on MDA-MB-435, 3.53 µM; in the test on OVCAR-5 ovarian, 13.2 µM; in the test on RPMI-8226 leukemia it was 3.35 µM. The GI50 in the test on SF-295 CNS was 37.7 µM; with SF-539 CNS, 6.33 µM; in the test on SK-MEL-28 melanoma, 11.4 µM; with U251 CNS, 23.5 µM. The TGI in the test with DU-145 prostate was 5.71 µM; with HCC-2998 colon, 36.9 µM; in the test on HCT-15 colon, 11.8 µM; in the test with MDA-MB-435 it was 17.1 µM; in the test on OVCAR-5 ovarian, 26.8 µM; with RPMI-8226 leukemia, 17.1 µM. The TGI in the test with SF-295 CNS was above 100 µM; with SF-539 CNS, 23.4 µM; with SK-MEL-28 melanoma it was 27.3 µM; with U251 CNS it was 61.5 µM.

In the case of `O=C(Nc1ccc(Cl)cc1)c1ccc([N+](=O)[O-])o1`, the GI50 in the test with DU-145 prostate was 3.95 µM; in the test with HCC-2998 colon, 1.44 µM; in the test with HCT-15 colon, 1.48 µM; in the test on MDA-MB-435, 2.25 µM; in the test with OVCAR-5 ovarian, 2.37 µM; in the test with RPMI-8226 leukemia it was 3.72 µM. The GI50 with SF-295 CNS is 3.29 µM; with SF-539 CNS it was 2.22 µM; in the test on SK-MEL-28 melanoma, 1.78 µM; in the test with U251 CNS, 1.36 µM. Also, the TGI amounted to 11.4 µM in the test on DU-145 prostate; 2.98 µM in the test with HCC-2998 colon; 3.43 µM in the test on HCT-15 colon; 6.2 µM with MDA-MB-435; 5.41 µM in the test with OVCAR-5 ovarian; 38.1 µM in the test with RPMI-8226 leukemia. The TGI in the test with SF-295 CNS came out at 12.3 µM; in the test on SF-539 CNS it was 4.9 µM; in the test with SK-MEL-28 melanoma, 3.79 µM; in the test on U251 CNS, 2.87 µM.

Turning to `CO/N=C(\COc1ccc2c(c1)oc(=O)c1cc(OC)ccc12)c1ccc(F)cc1`, the GI50 in the test on DU-145 prostate is 22.8 µM; in the test on HCC-2998 colon it was 23.6 µM; in the test with HCT-15 colon, 24.7 µM; with MDA-MB-435 it was 66.1 µM; in the test with OVCAR-5 ovarian, 29.4 µM; in the test on RPMI-8226 leukemia, 32.8 µM. The GI50 is 24.1 µM in the test with SF-295 CNS, 23.5 µM in the test on SF-539 CNS, 87.3 µM with SK-MEL-28 melanoma and 20.3 µM with U251 CNS. In addition, the TGI in the test on DU-145 prostate was 62.2 µM; in the test on HCC-2998 colon it was 72.7 µM; in the test with HCT-15 colon it was 81.9 µM; with MDA-MB-435, above 100 µM; with OVCAR-5 ovarian, 83.4 µM; in the test with RPMI-8226 leukemia, above 100 µM. Also, the TGI is 87.5 µM with SF-295 CNS, 63 µM with SF-539 CNS, above 100 µM in the test on SK-MEL-28 melanoma and 40.4 µM with U251 CNS.

As for `COc1cc(Nc2ncc3c(C)nc(-c4cccc(Oc5ccccc5)c4)n3n2)cc(OC)c1OC`, the GI50 was 3.05 µM in the test with DU-145 prostate; 5.15 µM in the test on HCC-2998 colon; 2.5 µM in the test on HCT-15 colon; 6.26 µM in the test on MDA-MB-435; 11.6 µM with OVCAR-5 ovarian; 6.08 µM in the test on RPMI-8226 leukemia. Also, the GI50 is 7.2 µM in the test with SF-295 CNS, 7.07 µM with SF-539 CNS, 7.63 µM with SK-MEL-28 melanoma and 6.51 µM with U251 CNS. Further, the TGI in the test with DU-145 prostate, with HCC-2998 colon, in the test on HCT-15 colon, in the test on MDA-MB-435, in the test with OVCAR-5 ovarian and in the test with RPMI-8226 leukemia was above 25 µM throughout. Besides, the TGI in the test with SF-295 CNS, with SF-539 CNS, in the test on SK-MEL-28 melanoma and in the test with U251 CNS was above 25 µM each time.

Consider `O=C1Nc2ccccc2/C1=C/c1ccccc1`, for which the TGI in the test on DU-145 prostate amounted to 27.4 µM; with HCC-2998 colon, 30.1 µM; in the test with HCT-15 colon, 35.4 µM; in the test on MDA-MB-435, 33.2 µM; in the test with OVCAR-5 ovarian it was 34.5 µM; in the test on RPMI-8226 leukemia, 77.7 µM. For the same compound, the TGI worked out at 36.1 µM in the test with SF-295 CNS, 42.6 µM in the test on SF-539 CNS, 44.4 µM in the test on SK-MEL-28 melanoma and 30 µM with U251 CNS.
